Data published in US7501442B2, “Biphenyl compounds useful as muscarinic receptor antagonists” (Theravance, Inc., priority 2004, dated 2009).

What was measured:
hM2 receptor = molecular target: T1, hM2 receptor (Homo sapiens, UniProt P08172); experiment: Blockade of agonist-mediated inhibition of cAMP accumulation; format: cell-based; conditions: CHO-K1 cells expressing the hM2 receptor; read-out: Ki value for blockade of oxotremorine-inhibition of forskolin-mediated cAMP accumulation
T1 construct: expressed in transfected cells; host or cells: CHO-K1 cells
T1 sequence (P08172 1-466): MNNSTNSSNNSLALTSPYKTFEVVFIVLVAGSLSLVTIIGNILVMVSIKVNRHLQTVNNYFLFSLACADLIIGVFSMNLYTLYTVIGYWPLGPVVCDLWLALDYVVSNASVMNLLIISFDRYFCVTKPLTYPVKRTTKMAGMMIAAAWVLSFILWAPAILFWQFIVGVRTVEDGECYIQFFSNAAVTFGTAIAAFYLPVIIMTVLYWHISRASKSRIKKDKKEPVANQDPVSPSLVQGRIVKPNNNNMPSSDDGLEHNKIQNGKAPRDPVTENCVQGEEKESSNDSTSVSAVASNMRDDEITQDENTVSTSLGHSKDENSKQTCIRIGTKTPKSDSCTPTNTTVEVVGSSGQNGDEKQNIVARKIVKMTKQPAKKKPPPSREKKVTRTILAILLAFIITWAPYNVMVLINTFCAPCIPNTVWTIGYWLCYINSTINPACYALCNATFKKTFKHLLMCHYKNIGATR
Method: A. Blockade of Agonist-Mediated Inhibition of cAMP Accumulation
In this assay, the functional potency of a test compound was determined by measuring the ability of the test compound to block oxotremorine-inhibition of forskolin-mediated cAMP accumulation in CHO-K1 cells expressing the hM2 receptor.
cAMP assays were performed in a radioimmunoassay format using the Flashplate Adenylyl Cyclase Activation Assay System with ^125I-cAMP (NEN SMP004B, PerkinElmer Life Sciences Inc., Boston, Mass.), according to the manufacturer's instructions.
Cells were rinsed once with dPBS and lifted with Trypsin-EDTA solution (0.05% trypsin/0.53 mM EDTA) as described in the Cell Culture and Membrane Preparation section above. […] The cell pellet was then re-suspended in 10 mL dPBS, and the cells were counted with a Coulter Z1 Dual Particle Counter (Beckman Coulter, Fullerton, Calif.). […]
Reactions were incubated for 10 minutes at 37° C. and stopped by addition of 100 μL ice-cold detection buffer. Plates were sealed, incubated overnight at room temperature and counted the next morning on a PerkinElmer TopCount liquid scintillation counter (PerkinElmer Inc., Wellesley, Mass.). The amount of cAMP produced (pmol/well) was calculated based on the counts observed for the samples and cAMP standards, as described in the manufacturer's user manual. […]

[1] = system: ACh-induced bronchoconstriction; experiment: Duration of bronchoprotection in guinea pig model of acetylcholine-induced bronchoconstriction; format: in vivo; conditions: inhalation, 1.5 hours post-dose
Method: Determination of Duration of Bronchoprotection in Guinea Pig Model of Acetylcholine-Induced Bronchoconstriction
Groups of six male guinea pigs (Duncan-Hartley (HsdPoc:DH) Harlan, Madison, Wis.) weighing between 250 and 350 g were individually identified by cage cards. Throughout the study animals were allowed access to food and water ad libitum.
Test compounds were administered via inhalation over 10 minutes in a whole-body exposure dosing chamber (R&S Molds, San Carlos, Calif.). The dosing chambers were arranged so that an aerosol was simultaneously delivered to 6 individual chambers from a central manifold. Guinea pigs were exposed to an aerosol of a test compound or vehicle (WFI). […] This was measured gravimetrically by comparing pre- and post-nebulization weights of the filled nebulizer.
The bronchoprotective effects of test compounds administered via inhalation were evaluated using whole body plethysmography at 1.5, 24, 48 and 72 hours post-dose.
Forty-five minutes prior to the start of the pulmonary evaluation, each guinea pig was anesthetized with an intramuscular injection of ketamine (43.75 mg/kg), xylazine (3.50 mg/kg) and acepromazine (1.05 mg/kg). […] The depth of anesthesia was monitored and adjusted if the animal responded to pinching of its paw or if the respiration rate was greater than 100 breaths/minute. […]

CN(CCN1CCC(OC(=O)Nc2ccccc2-c2ccccc2)CC1)C(=O)CCCCCNCCc1ccc(O)cc1 [Example 1, Biphenyl-2-ylcarbamic Acid 1-[2-({6-[2-(4-Hydroxyphenyl)ethylamino]hexanoyl}methylamino)ethyl]piperidin-4-yl Ester]
Ki (hM2 receptor): < 10 nM | PD2(50) for ACh-induced bronchoconstriction [1]: less than 200 μg/mL
